Measurements reported in PubChem BioAssay (NCI).
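Growth conditions: 96-well plates. Treatment: test compound, 48 hours, 5 concentrations. Analysis: linear interpolation between bracketing concentrations; unreached endpoints set to highest concentration. At the GI50, growth is halved. TGI denotes the concentration required for complete inhibition of growth.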

Experiments:
Assay in all cases: inhibition of tumour cell growth, NCI panel, 48 h; in the data active means GI50 below about 0.43 µM; inactive means the rest
IGROV1 ovarian = system: IGROV1 ovarian
BT-549 breast = system: BT-549 breast
HCT-116 colon = system: HCT-116 colon
NCI-H460 lung = system: NCI-H460 lung
SK-MEL-2 melanoma = system: SK-MEL-2 melanoma
HCC-2998 colon = system: HCC-2998 colon
MALME-3M melanoma = system: MALME-3M melanoma
NCI-H522 lung = system: NCI-H522 lung
SN12C renal = system: SN12C renal
OVCAR-4 ovarian = system: OVCAR-4 ovarian
MOLT-4 leukemia = system: MOLT-4 leukemia
UO-31 renal = system: UO-31 renal
OVCAR-5 ovarian = system: OVCAR-5 ovarian
HL-60(TB) leukemia = system: HL-60(TB) leukemia
OVCAR-8 ovarian = system: OVCAR-8 ovarian
LOX IMVI melanoma = system: LOX IMVI melanoma
TK-10 renal = system: TK-10 renal
A549 NSCLC = system: A549 NSCLC
SNB-19 CNS = system: SNB-19 CNS
RXF 393 renal = system: RXF 393 renal
786-0 renal = system: 786-0 renal
DU-145 prostate = system: DU-145 prostate
NCI-H226 lung = system: NCI-H226 lung
COLO 205 colon = system: COLO 205 colon
U251 CNS = system: U251 CNS
NCI/ADR-RES ovarian = system: NCI/ADR-RES ovarian
SF-268 CNS = system: SF-268 CNS
MDA-MB-435 = system: MDA-MB-435
EKVX NSCLC = system: EKVX NSCLC
HS 578T breast = system: HS 578T breast
ACHN renal = system: ACHN renal
HOP-62 NSCLC = system: HOP-62 NSCLC
CAKI-1 renal = system: CAKI-1 renal
SR leukemia = system: SR leukemia
SNB-75 CNS = system: SNB-75 CNS
PC-3 prostate = system: PC-3 prostate
CCRF-CEM leukemia = system: CCRF-CEM leukemia
KM12 colon = system: KM12 colon
SK-MEL-28 melanoma = system: SK-MEL-28 melanoma
T-47D breast = system: T-47D breast
SF-539 CNS = system: SF-539 CNS
SK-OV-3 ovarian = system: SK-OV-3 ovarian
HCT-15 colon = system: HCT-15 colon
M14 melanoma = system: M14 melanoma
SF-295 CNS = system: SF-295 CNS
UACC-257 melanoma = system: UACC-257 melanoma
MCF7 breast = system: MCF7 breast
HT29 colon = system: HT29 colon
HOP-92 NSCLC = system: HOP-92 NSCLC
UACC-62 melanoma = system: UACC-62 melanoma
SW-620 colon = system: SW-620 colon
MDA-MB-231 breast = system: MDA-MB-231 breast
K-562 leukemia = system: K-562 leukemia
RPMI-8226 leukemia = system: RPMI-8226 leukemia
SK-MEL-5 melanoma = system: SK-MEL-5 melanoma
OVCAR-3 ovarian = system: OVCAR-3 ovarian
A498 renal = system: A498 renal
NCI-H23 lung = system: NCI-H23 lung

COc1ccc(-c2nc(-c3cc4ccccc4oc3=O)cs2)cc1
> 100 µM: TGI (IGROV1 ovarian) | TGI (BT-549 breast) | TGI (HCT-116 colon) | TGI (NCI-H460 lung) | TGI (SK-MEL-2 melanoma) | TGI (HCC-2998 colon) | TGI (MALME-3M melanoma) | TGI (NCI-H522 lung) | TGI (SN12C renal) | TGI (OVCAR-4 ovarian) | TGI (MOLT-4 leukemia) | TGI (UO-31 renal) | TGI (OVCAR-5 ovarian) | TGI (HL-60(TB) leukemia) | TGI (LOX IMVI melanoma) | TGI (TK-10 renal) | TGI (A549 NSCLC) | TGI (SNB-19 CNS) | TGI (RXF 393 renal) | TGI (786-0 renal) | TGI (DU-145 prostate) | TGI (NCI-H226 lung) | TGI (COLO 205 colon) | TGI (NCI/ADR-RES ovarian) | TGI (SF-268 CNS) | TGI (MDA-MB-435) | TGI (EKVX NSCLC) | TGI (HS 578T breast) | TGI (ACHN renal) | TGI (CAKI-1 renal) | TGI (SR leukemia) | TGI (SNB-75 CNS) | TGI (PC-3 prostate) | TGI (CCRF-CEM leukemia) | TGI (KM12 colon) | TGI (SK-MEL-28 melanoma) | TGI (T-47D breast) | TGI (SF-539 CNS) | TGI (HCT-15 colon) | TGI (M14 melanoma) | TGI (SF-295 CNS) | TGI (UACC-257 melanoma) | TGI (MCF7 breast) | TGI (HT29 colon) | TGI (HOP-92 NSCLC) | TGI (UACC-62 melanoma) | TGI (SW-620 colon) | TGI (K-562 leukemia) | TGI (RPMI-8226 leukemia) | TGI (SK-MEL-5 melanoma)
96.4 µM: TGI (HOP-62 NSCLC)
56.3 µM: TGI (OVCAR-8 ovarian)
53.8 µM: TGI (MDA-MB-231 breast)
91.6 µM: TGI (SK-OV-3 ovarian)
47.4 µM: TGI (U251 CNS)

Nc1nc2c(c3ncccc13)C(c1ccc(Cl)c(Cl)c1)Cc1ncccc1-2 (centres undefined)
18.6 µM: TGI (OVCAR-4 ovarian)
34 µM: TGI (RPMI-8226 leukemia)
15.3 µM: TGI (A549 NSCLC)
11.9 µM: TGI (HT29 colon)
20.5 µM: TGI (TK-10 renal) | TGI (CAKI-1 renal)
7.3 µM: TGI (COLO 205 colon)
14.1 µM: TGI (HCT-116 colon)
15.2 µM: TGI (MOLT-4 leukemia)
14 µM: TGI (HOP-62 NSCLC)
16.2 µM: TGI (HL-60(TB) leukemia) | TGI (LOX IMVI melanoma)
16.1 µM: TGI (NCI/ADR-RES ovarian) | TGI (HCT-15 colon)
15.8 µM: TGI (SK-MEL-2 melanoma)
5.1 µM: TGI (NCI-H522 lung)
inactive: GI50 (IGROV1 ovarian) 7.83 µM | GI50 (BT-549 breast) 3.73 µM | GI50 (HCT-116 colon) 3.71 µM | GI50 (NCI-H460 lung) 3.47 µM | GI50 (SK-MEL-2 melanoma) 3.79 µM | GI50 (HCC-2998 colon) 5.62 µM | GI50 (MALME-3M melanoma) 8.94 µM | GI50 (NCI-H522 lung) 1.5 µM | GI50 (SN12C renal) 6.71 µM | GI50 (OVCAR-4 ovarian) 5.76 µM | GI50 (MOLT-4 leukemia) 3.3 µM | GI50 (UO-31 renal) 4.99 µM | GI50 (OVCAR-5 ovarian) 6.51 µM | GI50 (HL-60(TB) leukemia) 3.09 µM | GI50 (OVCAR-8 ovarian) 4.24 µM | GI50 (OVCAR-3 ovarian) 2.59 µM | GI50 (LOX IMVI melanoma) 4.4 µM | GI50 (TK-10 renal) 6.46 µM | GI50 (A549 NSCLC) 4.24 µM | GI50 (SNB-19 CNS) 3.77 µM | GI50 (A498 renal) 1.93 µM | GI50 (RXF 393 renal) 1.52 µM | GI50 (786-0 renal) 3.49 µM | GI50 (DU-145 prostate) 3.6 µM | GI50 (NCI-H226 lung) 16.6 µM | GI50 (COLO 205 colon) 2.65 µM | GI50 (U251 CNS) 3.78 µM | GI50 (NCI-H23 lung) 5.59 µM | GI50 (NCI/ADR-RES ovarian) 3.31 µM | GI50 (SF-268 CNS) 5.14 µM | GI50 (MDA-MB-435) 0.867 µM | GI50 (EKVX NSCLC) 4.86 µM | GI50 (HS 578T breast) 3.62 µM | GI50 (ACHN renal) 4.55 µM | GI50 (HOP-62 NSCLC) 2.96 µM | GI50 (CAKI-1 renal) 3.9 µM | GI50 (SR leukemia) 2.46 µM | GI50 (SNB-75 CNS) 1.85 µM | GI50 (PC-3 prostate) 3.4 µM | GI50 (CCRF-CEM leukemia) 3.27 µM | GI50 (KM12 colon) 2.73 µM | GI50 (SK-MEL-28 melanoma) 4.07 µM | GI50 (T-47D breast) 2.39 µM | GI50 (SF-539 CNS) 2.15 µM | GI50 (SK-OV-3 ovarian) 3.49 µM | GI50 (HCT-15 colon) 4.36 µM | GI50 (M14 melanoma) 3.2 µM | GI50 (SF-295 CNS) 2.82 µM | GI50 (UACC-257 melanoma) 13.2 µM | GI50 (MCF7 breast) 2.99 µM | GI50 (HT29 colon) 3.22 µM | GI50 (UACC-62 melanoma) 2.28 µM | GI50 (SW-620 colon) 3.5 µM | GI50 (MDA-MB-231 breast) 4.05 µM | GI50 (K-562 leukemia) 2.67 µM | GI50 (RPMI-8226 leukemia) 3.81 µM | GI50 (SK-MEL-5 melanoma) 3.99 µM
19.1 µM: TGI (HCC-2998 colon)
41.5 µM: TGI (NCI-H226 lung)
23.4 µM: TGI (SF-268 CNS)
13 µM: TGI (NCI-H460 lung) | TGI (SR leukemia)
7.94 µM: TGI (SF-295 CNS)
24.2 µM: TGI (OVCAR-5 ovarian)
26.4 µM: TGI (UACC-257 melanoma)
17.3 µM: TGI (K-562 leukemia)
13.9 µM: TGI (U251 CNS) | TGI (SK-MEL-28 melanoma)
6.6 µM: TGI (SNB-75 CNS)
17.1 µM: TGI (MDA-MB-231 breast)
16 µM: TGI (ACHN renal)
28.1 µM: TGI (IGROV1 ovarian)
22 µM: TGI (UO-31 renal)
5.85 µM: TGI (A498 renal)
16.6 µM: TGI (CCRF-CEM leukemia)
14.2 µM: TGI (MCF7 breast)
15.5 µM: TGI (PC-3 prostate)
18.4 µM: TGI (EKVX NSCLC)
24.8 µM: TGI (SN12C renal)
36.5 µM: TGI (OVCAR-8 ovarian)
12.3 µM: TGI (M14 melanoma)
14.8 µM: TGI (SK-MEL-5 melanoma)
19 µM: TGI (SW-620 colon)
5.25 µM: TGI (RXF 393 renal)
26.3 µM: TGI (MALME-3M melanoma)
7.63 µM: TGI (OVCAR-3 ovarian)
12.5 µM: TGI (DU-145 prostate) | TGI (UACC-62 melanoma)
5.35 µM: TGI (SF-539 CNS)
16.7 µM: TGI (BT-549 breast)
2.95 µM: TGI (MDA-MB-435)
14.4 µM: TGI (SNB-19 CNS) | TGI (KM12 colon)
21.6 µM: TGI (NCI-H23 lung)
19.2 µM: TGI (HS 578T breast)
12.6 µM: TGI (SK-OV-3 ovarian)
13.4 µM: TGI (786-0 renal) | TGI (T-47D breast)
